Values quoted from earlier work in patent US20050281872A1, “Enhanced compliance antiviral medicaments and methods of manufacture and use” (priority 2004, published 2005).

Experiments:
[1] = taking antacids containing magnesium, aluminum, and simethicone
[2] = ribavirin powder
[3] = patients receiving ribavirin antiviral therapy

Compound | patients who responded positively (hepatitis C virus (HCV); high dose of interferon for six months) | decrease in available ribavirin [1] [%] | solubility in alcohol (alcohol) | solubility in water (water) | effectiveness in treating hepatitis C (hepatitis C virus (HCV); ribavirin alone, without interferon) | dissolution time in water [2] | patients requiring a reduction in dose or discontinuation of therapy because of side effects [3]
interferon | nearly half |  |  |  |  |  | 
NC(=O)c1ncn([C@@H]2O[C@H](CO)[C@@H](O)[C@H]2O)n1 [ribavirin] |  | 14 | only sparingly soluble | freely soluble | not effective | almost instantaneous | up to 20%
